Source: PubChem BioAssay (NCI)
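How tested: cells in 96-well plates exposed to compound for 48 hours at five concentrations. GI50 = concentration required for 50% inhibition of growth. The concentration for full growth arrest is given as TGI.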

Legend:
Test in all cases: DTP human tumour cell line panel, 48 h
786-0 renal = tested on: 786-0 renal
A498 renal = tested on: A498 renal
A549 NSCLC = tested on: A549 NSCLC
ACHN renal = tested on: ACHN renal
BT-549 breast = tested on: BT-549 breast
CAKI-1 renal = tested on: CAKI-1 renal
CCRF-CEM leukemia = tested on: CCRF-CEM leukemia
COLO 205 colon = tested on: COLO 205 colon
DU-145 prostate = tested on: DU-145 prostate
EKVX NSCLC = tested on: EKVX NSCLC
HCC-2998 colon = tested on: HCC-2998 colon
HCT-116 colon = tested on: HCT-116 colon
HCT-15 colon = tested on: HCT-15 colon
HL-60(TB) leukemia = tested on: HL-60(TB) leukemia
HOP-62 NSCLC = tested on: HOP-62 NSCLC
HOP-92 NSCLC = tested on: HOP-92 NSCLC
HS 578T breast = tested on: HS 578T breast
HT29 colon = tested on: HT29 colon
IGROV1 ovarian = tested on: IGROV1 ovarian
K-562 leukemia = tested on: K-562 leukemia
KM12 colon = tested on: KM12 colon
LOX IMVI melanoma = tested on: LOX IMVI melanoma
M14 melanoma = tested on: M14 melanoma
MALME-3M melanoma = tested on: MALME-3M melanoma
MCF7 breast = tested on: MCF7 breast
MDA-MB-435 = tested on: MDA-MB-435
MOLT-4 leukemia = tested on: MOLT-4 leukemia
NCI-H226 lung = tested on: NCI-H226 lung
NCI-H23 lung = tested on: NCI-H23 lung
NCI-H460 lung = tested on: NCI-H460 lung
NCI-H522 lung = tested on: NCI-H522 lung
NCI/ADR-RES ovarian = tested on: NCI/ADR-RES ovarian
OVCAR-3 ovarian = tested on: OVCAR-3 ovarian
OVCAR-4 ovarian = tested on: OVCAR-4 ovarian
OVCAR-5 ovarian = tested on: OVCAR-5 ovarian
OVCAR-8 ovarian = tested on: OVCAR-8 ovarian
PC-3 prostate = tested on: PC-3 prostate
RPMI-8226 leukemia = tested on: RPMI-8226 leukemia
RXF 393 renal = tested on: RXF 393 renal
SF-268 CNS = tested on: SF-268 CNS
SF-295 CNS = tested on: SF-295 CNS
SF-539 CNS = tested on: SF-539 CNS
SK-MEL-2 melanoma = tested on: SK-MEL-2 melanoma
SK-MEL-28 melanoma = tested on: SK-MEL-28 melanoma
SK-MEL-5 melanoma = tested on: SK-MEL-5 melanoma
SK-OV-3 ovarian = tested on: SK-OV-3 ovarian
SN12C renal = tested on: SN12C renal
SNB-75 CNS = tested on: SNB-75 CNS
SW-620 colon = tested on: SW-620 colon
TK-10 renal = tested on: TK-10 renal
U251 CNS = tested on: U251 CNS
UACC-257 melanoma = tested on: UACC-257 melanoma
UACC-62 melanoma = tested on: UACC-62 melanoma

CCCC[C@@H](COC(=O)N(Cc1cccs1)Cc1cccs1)NC(=O)N[C@@H](CC(=O)OC)c1ccc2c(c1)OCO2
GI50 (786-0 renal): > 100 µM
TGI (786-0 renal): > 100 µM
GI50 (A498 renal): > 100 µM
TGI (A498 renal): > 100 µM
GI50 (A549 NSCLC): 67.7 µM
TGI (A549 NSCLC): > 100 µM
GI50 (ACHN renal): > 100 µM
TGI (ACHN renal): > 100 µM
GI50 (BT-549 breast): > 100 µM
TGI (BT-549 breast): > 100 µM
GI50 (CAKI-1 renal): > 100 µM
TGI (CAKI-1 renal): > 100 µM
GI50 (CCRF-CEM leukemia): > 100 µM
TGI (CCRF-CEM leukemia): > 100 µM
GI50 (COLO 205 colon): > 100 µM
TGI (COLO 205 colon): > 100 µM
GI50 (DU-145 prostate): > 100 µM
TGI (DU-145 prostate): > 100 µM
GI50 (EKVX NSCLC): > 100 µM
TGI (EKVX NSCLC): > 100 µM
GI50 (HCC-2998 colon): > 100 µM
TGI (HCC-2998 colon): > 100 µM
GI50 (HCT-116 colon): > 100 µM
TGI (HCT-116 colon): > 100 µM
GI50 (HCT-15 colon): > 100 µM
TGI (HCT-15 colon): > 100 µM
GI50 (HL-60(TB) leukemia): > 100 µM
TGI (HL-60(TB) leukemia): > 100 µM
GI50 (HOP-62 NSCLC): > 100 µM
TGI (HOP-62 NSCLC): > 100 µM
GI50 (HOP-92 NSCLC): > 100 µM
TGI (HOP-92 NSCLC): > 100 µM
GI50 (HS 578T breast): > 100 µM
TGI (HS 578T breast): > 100 µM
GI50 (HT29 colon): > 100 µM
TGI (HT29 colon): > 100 µM
GI50 (IGROV1 ovarian): > 100 µM
TGI (IGROV1 ovarian): > 100 µM
GI50 (K-562 leukemia): 59.6 µM
TGI (K-562 leukemia): > 100 µM
GI50 (KM12 colon): > 100 µM
TGI (KM12 colon): > 100 µM
GI50 (LOX IMVI melanoma): > 100 µM
TGI (LOX IMVI melanoma): > 100 µM
GI50 (M14 melanoma): > 100 µM
TGI (M14 melanoma): > 100 µM
GI50 (MALME-3M melanoma): > 100 µM
TGI (MALME-3M melanoma): > 100 µM
GI50 (MCF7 breast): > 100 µM
TGI (MCF7 breast): > 100 µM
GI50 (MDA-MB-435): > 100 µM
TGI (MDA-MB-435): > 100 µM
GI50 (MOLT-4 leukemia): 5.19 µM
TGI (MOLT-4 leukemia): > 100 µM
GI50 (NCI-H226 lung): > 100 µM
TGI (NCI-H226 lung): > 100 µM
GI50 (NCI-H23 lung): > 100 µM
TGI (NCI-H23 lung): > 100 µM
GI50 (NCI-H460 lung): > 100 µM
TGI (NCI-H460 lung): > 100 µM
GI50 (NCI-H522 lung): > 100 µM
TGI (NCI-H522 lung): > 100 µM
GI50 (NCI/ADR-RES ovarian): > 100 µM
TGI (NCI/ADR-RES ovarian): > 100 µM
GI50 (OVCAR-3 ovarian): > 100 µM
TGI (OVCAR-3 ovarian): > 100 µM
GI50 (OVCAR-4 ovarian): > 100 µM
TGI (OVCAR-4 ovarian): > 100 µM
GI50 (OVCAR-5 ovarian): > 100 µM
TGI (OVCAR-5 ovarian): > 100 µM
GI50 (OVCAR-8 ovarian): > 100 µM
TGI (OVCAR-8 ovarian): > 100 µM
GI50 (PC-3 prostate): 9.09 µM
TGI (PC-3 prostate): > 100 µM
GI50 (RPMI-8226 leukemia): 8.11 µM
TGI (RPMI-8226 leukemia): > 100 µM
GI50 (RXF 393 renal): > 100 µM
TGI (RXF 393 renal): > 100 µM
GI50 (SF-268 CNS): > 100 µM
TGI (SF-268 CNS): > 100 µM
GI50 (SF-295 CNS): > 100 µM
TGI (SF-295 CNS): > 100 µM
GI50 (SF-539 CNS): > 100 µM
TGI (SF-539 CNS): > 100 µM
GI50 (SK-MEL-2 melanoma): > 100 µM
TGI (SK-MEL-2 melanoma): > 100 µM
GI50 (SK-MEL-28 melanoma): > 100 µM
TGI (SK-MEL-28 melanoma): > 100 µM
GI50 (SK-MEL-5 melanoma): > 100 µM
TGI (SK-MEL-5 melanoma): > 100 µM
GI50 (SK-OV-3 ovarian): > 100 µM
TGI (SK-OV-3 ovarian): > 100 µM
GI50 (SN12C renal): > 100 µM
TGI (SN12C renal): > 100 µM
GI50 (SNB-75 CNS): > 100 µM
TGI (SNB-75 CNS): > 100 µM
GI50 (SW-620 colon): > 100 µM
TGI (SW-620 colon): > 100 µM
GI50 (TK-10 renal): > 100 µM
TGI (TK-10 renal): > 100 µM
GI50 (U251 CNS): > 100 µM
TGI (U251 CNS): > 100 µM
GI50 (UACC-257 melanoma): > 100 µM
TGI (UACC-257 melanoma): > 100 µM
GI50 (UACC-62 melanoma): > 100 µM
TGI (UACC-62 melanoma): > 100 µM
